Data published in patent US20100273167A1, “METHODS FOR DETERMINING PRENATAL ALCOHOL EXPOSURE” (priority 2009, published 2010).
“And” between values parts separate entries of the source, which are not always exact repeats. Identical values can stand only once. Like-named read-outs stand apart in the source and are kept apart here.

Tests used:
[1] = system: Human AFSC; settings: 48 hours
Experimental: Human AFSC were seeded at 3,000 cells/cm^2 and maintained in culture as described previously (De Coppi et al., Isolation of amniotic stem cell lines with potential for therapy. Nat Biotechnol. 2007; 25:100-106). AFSC were grown in α-MEM medium (Gibco, Invitrogen) containing 15% ES-FBS, 1% glutamine, and 1% penicillin/streptomycin (Gibco), supplemented with 18% Chang B and 2% Chang C (Irvine Scientific) at 37° C. with 5% CO2 atmosphere. For dose-dependent studies on cell growth and viability, AFSC were treated with 25 mM, 50 mM, 75 mM, and 100 mM ethanol (Sigma-Aldrich, St. Louis, Mo.), and sealed with parafilm with media being replaced every 24 hours.
Forty-eight hours after seeding, ethanol was added to the media and parafilm sealed to prevent evaporation. Control groups were not treated with ethanol but otherwise treated identically. Proliferation rate was determined by measuring the number of AFSC after 48 hours of various ethanol concentrations. Cell number was measured using a Coulter counter. Cell viability was determined by propidium iodine (PI) exclusion. AFSC were dissociated by 0.05% trypsin/EDTA (Gibco), centrifuged at 1,500 RPM for 5 minutes, and resuspended in 1 ml of PBS in 15 ml polypropylene tubes. 50 μl of PI, […], was added to each tube and incubated for 1 hour at room temperature. Cells were centrifuged, supernatant removed, and washed twice with a wash buffer. Samples were analyzed by flow cytometry using the FL-1 channel.

[2] = system: Human AFSC gene expression; settings: 100 mM ethanol, 48 hours
Experimental: Microarray Analyses. Two microarray analyses were performed on AFSC sealed with parafilm for 48 hours with or without 100 mM of ethanol. Fragmented antisense cRNA was used for hybridizing to human U133 A arrays (Affymetrix, Inc. Santa Clara, Calif., USA) at the Core Genomic Facility of Wake Forest University School of Medicine.
Raw CEL files were provided by the Microarray Core Facility of the Wake Forest University School of Medicine and were then analyzed with a software package AffylmGUI (Affymetrix LIMMA, Linear Models for Microarray Data, Graphical User Interfaces) (Wettenhall et al., limmaGUI: a graphical user interface for linear modeling of microarray data. Bioinformatics. 2004; 20:3705-3706; Wettenhall et al., affylmGUI: a graphical user interface for linear modeling of single channel microarray data. Bioinformatics. 2006; 22:897-899). Within AffylmGUI, gene expression values were summarized with RMA. RMA adjusts for background noise, performs a quantile normalization, transforms the data into log base 2, and then summarizes the multiple probes into one intensity (Bolstad et al., A comparison of normalization methods for high density oligonucleotide array data based on variance and bias. Bioinformatics. 2003; 19:185-193; Irizarry et al., Exploration, normalization, and summaries of high density oligonucleotide array probe level data. Biostatistics. 2003; 4:249-264; Irizarry et al., Summaries of Affymetrix GeneChip probe level data. Nucleic Acids Res. 2003; 31:e15). Quantification of relative differences in gene expression among the groups of interest was accomplished using AffylmGUI, the sister package of limmaGUI (Wettenhall et al., limmaGUI: a graphical user interface for linear modeling of microarray data. Bioinformatics. 2004; 20:3705-3706; Wettenhall et al., affylmGUI: a graphical user interface for linear modeling of single channel microarray data. Bioinformatics. 2006; 22:897-899). AffylmGUI reads the raw Affymetrix CEL files directly, summarizes the gene expression values using RMA, and then uses LIMMA to identify statistically significant differences in gene expression (Smyth, Linear models and empirical bayes methods for assessing differential expression in microarray experiments. Stat Appl Genet Mol Biol. 2004; 3:Article3). LIMMA fits a linear model for every gene (like ANOVA or multiple regression analysis), and adjusts P values for multiple testings (Smyth, Linear models and empirical bayes methods for assessing differential expression in microarray experiments. Stat Appl Genet Mol Biol. 2004; 3:Article3). Differentially expressed genes were identified with a fold change >1.8.
To uncover enriched processes, data sets were analyzed by DAVID (Database for Annotation, Visualization and Integrated Discovery), a web-based tool that provides statistical methods for identifying over-represented biological themes and pathways within diverse and disparate gene lists (Dennis et al., DAVID: Database for Annotation, Visualization, and Integrated Discovery. Genome Biol. 2003; 4:3). DAVID also identifies over-represented biological themes in terms of their Gene Ontology (GO) terms and provides tools to visualize the distribution of genes on BioCarta and KFGG pathway maps. (Ashburner et al., Gene ontology: tool for the unification of biology. The Gene Ontology Consortium. Nat Genet. 2000; 25:25-29). GO provides consistent descriptions of genes in terms of biological processes and molecular function. Gene-enrichment analysis computes a modified Fisher exact p-value by comparing the ontological themes identified in our data set to total possible ontological processes present on the U133A chip.

[3] = system: osteopontin; settings: 100 mM ethanol
Experimental: Total RNA was isolated from AFSC using PerfectPure RNA Cultured Cell Kit (5 Prime) in accordance with the manufacturer's protocol. Following the procedure, DNA digestion was included as recommended by the supplier to eliminate the contamination of genomic DNA. Quality of total RNA was assessed by the spectrophotometric ratio of 260/280. For the reverse-transcriptase reaction, SuperscriptII reverse transcription reagents (Invitrogen) were used. Briefly, 1 μg of RNA was converted to cDNA. PCR amplification was performed with TaqMan Universal Master Mix (Applied Biosystems). Reactions were performed in duplicate, containing 1 μl of cDNA, 1.25 μl probe, 12 μl Master Mix, 10 μl DI H20 and were analyzed in a 96-well optical reaction plate (Applied Biosystems). Reactions were amplified and quantified using an ABI 7700 sequence detectors and manufacturer's software (Applied Biosystems). On demand fluorescent probes for the following genes: β-actin and osteopontin. The threshold cycle (Ct) indicates the fractional cycle number at which the amount of amplified target reaches a defined threshold. ΔCt was obtained by subtracting the Ct values of endogenous controls (β-actin) from the Ct values of the target genes.

[4] = system: alkaline phosphatase activity in AFSC; settings: 100 mM ethanol at day 8 (midpoint) of osteogenic differentiation for 48 hours
Experimental: (§1) Human AFSC were induced to differentiate into osteogenic cell types as described previously (De Coppi et al., Isolation of amniotic stem cell lines with potential for therapy. Nat Biotechnol. 2007; 25:100-106). Briefly, AFSC was cultured in DMEM low glucose with 10% FBS supplemented with 100 nM dexamethasone (Sigma-Aldrich), 10 mM beta-glycerophosphate (Sigma-Aldrich) and 0.05 mM ascorbic acid-2-phosphate (Wako Chemicals, Irving, Tex.). Cells were grown to confluency and then treated with ethanol for the first 48 hours of osteogenic differentiation to control for ethanol's antiproliferative effect. Cell number was determined after 24 and 48 hours of ethanol and bone differentiation.
Alkaline phosphatase activity was measured using p-nitrophenyl phosphate liquid substrate system (Sigma). Cells grown in 24-well plates were rinsed in PBS and incubated with 0.15% Triton X-100 for 30 mins. Two hundred uL of p-nitrophenyl phosphate solution was added to the Triton-X 100 solution. Cells were incubated in the dark for 1 hour and read spectrophotometrically at 405 nm.

[5] = system: Human AFSC
Experimental: as §1

[6] = system: Human AFSC; settings: 25 mM to 100 mM ethanol
Experimental: Forty-eight hours after seeding, ethanol was added to the media and parafilm sealed to prevent evaporation. Control groups were not treated with ethanol but otherwise treated identically. […] Cell number was measured using a Coulter counter. Cell viability was determined by propidium iodine (PI) exclusion. AFSC were dissociated by 0.05% trypsin/EDTA (Gibco), centrifuged at 1,500 RPM for 5 minutes, and resuspended in 1 ml of PBS in 15 ml polypropylene tubes. 50 μl of PI, a nucleotide analogue, was added to each tube and incubated for 1 hour at room temperature. Cells were centrifuged, supernatant removed, and washed twice with a wash buffer. Samples were analyzed by flow cytometry using the FL-1 channel.

[7] = over a period of 24 hours, parafilm sealed
[8] = system: c-kit; settings: in vitro alcohol exposure of AFSC

## CCO [ethanol]
[1]; 25 mM ethanol, relative to cells without ethanol
  reduction in proliferation rate: 22%
[1]; 100 mM ethanol, relative to cells without ethanol
  reduction in the rate of proliferation: 33%
[1]; 25-100 mM ethanol
  effect on rate of proliferation: dose-dependent reduction in the rate of proliferation
[2]; growth media
  Basic fibroblast growth factor/FGF2 expression fold change: −2.0 fold change
  number of genes down-regulated in response to ethanol: 16 genes
  number of genes up-regulated in response to ethanol: 65 genes
[2]; gene ontology category
  Count of down-regulated genes: anatomical structure development: 6
  Count of down-regulated genes: circulatory system process: 3
  Count of down-regulated genes: embryonic development: 3
  Count of down-regulated genes: glucose transport: 2
  Count of down-regulated genes: multi-organism process: 3
  Count of down-regulated genes: negative regulation of cellular process: 6
  Count of down-regulated genes: regulation of biological quality: 4
  Count of up-regulated genes: IGF receptor signaling pathway: 2
  Count of up-regulated genes: biomineral & ossification: 5
  Count of up-regulated genes: blood vessel morphogenesis: 4
  Count of up-regulated genes: developmental process: 17
  Count of up-regulated genes: organ development: 12
  Count of up-regulated genes: organ morphogenesis: 7
  Count of up-regulated genes: reproductive developmental process: 4
  Count of up-regulated genes: skeletal development: 5
  Count of up-regulated genes: system development: 13
  Count of up-regulated genes: tyrosine kinase signaling pathway: 4
[3]; 24 hours, growth media, vs control AFSC
  increase in mRNA expression of osteopontin: 2.2 fold
[3]; 24 hours, osteogenic media
  increase in mRNA expression of osteopontin: 2 fold
[3]; 48 hours, growth media, vs control AFSC
  increase in mRNA expression of osteopontin: 2.8 fold change
[4]
  effect on alkaline phosphatase activity: no statistically significant effect on alkaline phosphatase activity
[5]; 100 mM ethanol during first 48 hours of osteogenic differentiation, day 23, non-exposed AFSC 77.40±26.85
  calcium deposition: 155.06 ± 75.85 µg/mL and 155.1 ± 75.8 µg/mL
[5]; cells grown to confluency, 24 and 48 hours of ethanol and bone differentiation (data not shown)
  effect on cell number: no effect on cell number
[6]
  effect on cell viability: did not have a significant effect on cell viability
[7]
  ethanol concentration present in the culture media: did not change
[8]
  effect on c-kit expression: does not appear to affect c-kit expression
